# Source: patent US7612034B2, “Treatment of subnormal bone mineral density” (Genelabs Technologies, Inc., priority 1999, dated 2009)
# Tests used:
# [1] = Stability of DHEA polymorph preparations under ambient conditions; format: physicochemical
# [2] = Oral uptake and absorption of DHEA polymorph preparations; conditions: oral administration
# ovarectomized rats = conditions: administration of DHEA to ovarectomized rats; cited from earlier work
# [3] = tested on: systemic lupus erythematous (SLE) patients; assay: Clinical trial data, SLE patients treated with DHEA, BMD; format: in vivo, human; conditions: DHEA 200 mg daily, alone or in combination with prednisone
# Source text: Its role in fetal physiology is poorly understood, but it is thought to serve as a precursor for other steroids, leading to androgen and estrogenic steroids. […] However, the administration of DHEA to humans to prevent bone loss or increase bone density is not a recognized treatment for osteoporosis/osteopenia by the medical community.
# [4] = tested on: Postmenopausal women with osteoporosis; conditions: cited from earlier work
# [5] = tested on: postmenopausal women with low bone mass; conditions: cited from earlier work
# [6] = tested on: spine bone mineral density (BMD); conditions: analysis of 16 studies; chronic calcitonin treatment; cited from earlier work
molecule,measurement,setting,value
"C[C@]12CC[C@H](O)CC1=CC[C@@H]1[C@@H]2CC[C@]2(C)C(=O)CC[C@@H]12 [DHEA form I, dehydroepiandrosterone]",stability,[1],highly stable under ambient conditions
"C[C@]12CC[C@H](O)CC1=CC[C@@H]1[C@@H]2CC[C@]2(C)C(=O)CC[C@@H]12 [DHEA form II, dehydroepiandrosterone]",rate of absorption,[2],rapid rate of absorption (greater than the form I polymorph)
same,stability,[1],stable under ambient conditions
"C[C@]12CC[C@H](O)CC1=CC[C@@H]1[C@@H]2CC[C@]2(C)C(=O)CC[C@@H]12 [DHEA, dehydroepiandrosterone]",bone density,ovarectomized rats,increased bone density
same,improvement of BMD,[3],only slight improvement of BMD
NCCCC(O)(P(=O)(O)O)P(=O)(O)O [alendronate],increases in BMD compared with calcitonin,"[4]; alendronate 10 mg, LS and HT at 6 and 12 months (p<0.001), FN at 12 months (p=0.001)",significantly greater increases in BMD than did calcitonin
same,increases in BMD compared with calcitonin,"[5]; alendronate 10 mg, LS and HT at 6 and 12 months (p<0.001), FN at 12 months (p=0.003)",significantly greater increases in BMD than did calcitonin
calcitonin,BMD changes compared with placebo at FN,"[4]; calcitonin 200 IU daily, FN at 6 (p=0.003) and 12 months (p=0.008)",statistically different from placebo
same,BMD changes compared with placebo at LS or HT,"[4]; calcitonin 200 IU daily, LS or HT at 6 or 12 months",not significantly different
same,BMD changes compared with placebo,"[5]; calcitonin 200 IU daily, LS, HT or FN at 6 or 12 months",not statistically different from placebo
same,increases in BMD in total femur and lumbar spine,"[5]; up to 1 year of therapy, calcitonin 200 IU daily",only modest increases in BMD
same,mean increase in spine bone mineral density (BMD),[6],1.97%
